# Test results as given in patent US20190175744A1, “INSULIN-INCRETIN CONJUGATES” (Merck Sharp & Dohme Corp., priority 2016, published 2019).
# Like-named read-outs stand apart in the source and are kept apart here. Non-standard residues stand in square brackets, D forms with d. Residues, ends and D or L forms follow the SMILES beside them. Lys(N3) = [N-]=[N+]=NCCCC[C@H](N)C(=O)O; Aib = CC(C)(N)C(=O)O
# Key:
# human GLP1R = human GLP1R (Homo sapiens, UniProt P43220); test: cAMP activity assay, cells expressing human GLP1R; assay type: cell-based
# human GLP1R, sequence (P43220 24-463): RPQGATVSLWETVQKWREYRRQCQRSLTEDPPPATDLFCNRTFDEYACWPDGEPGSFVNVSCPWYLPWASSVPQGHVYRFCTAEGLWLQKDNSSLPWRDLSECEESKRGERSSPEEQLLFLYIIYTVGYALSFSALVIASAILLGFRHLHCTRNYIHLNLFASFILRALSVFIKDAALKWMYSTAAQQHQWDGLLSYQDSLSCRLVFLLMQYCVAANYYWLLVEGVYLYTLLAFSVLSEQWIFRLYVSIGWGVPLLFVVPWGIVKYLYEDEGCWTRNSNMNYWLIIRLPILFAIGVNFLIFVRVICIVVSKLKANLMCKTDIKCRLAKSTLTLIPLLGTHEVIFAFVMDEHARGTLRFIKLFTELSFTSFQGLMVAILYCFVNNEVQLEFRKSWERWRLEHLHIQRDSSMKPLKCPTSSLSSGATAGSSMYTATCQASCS
# Description: (§1) Activity of the incretin peptides or the conjugates at the Glucagon receptor (GCGR) and GLP-1 receptor (GLP1R) may be measured in a cAMP activity assay as follows.
# (§2) Peptides are dissolved in 100% DMSO and serially diluted to generate 10 point titrations. The peptide solutions are then transferred into 384-well assay plates (150 nL/well). Assay ready frozen cells expressing human GLP1R or human GCGR are suspended in growth media consisting of DMEM medium (GIBCO), 10% FBS (GIBCO), 1×NEAA(GIBCO), 1×P/S (GIBCO), 10 μg/mL Blasticidin (GIBCO) and 200 μg/mL Hygromycin (GIBCO). […] The cell suspensions (15 μL) are then added to the assay plates containing the peptide solutions (30,000 cells/well for human GCGR; 10,000 cells/well for human GLP1R). The cells are incubated for one hour at room temperature in the dark.
# (§3) Production of cAMP may be determined using HitHunterr cAMPXS kits (DiscoverX) following the manufacturer's protocol. The plates are incubated for overnight at room temperature in the dark. Luminescence may be measured using an EnVision Multilabel plate reader (Perkin Elmer). Native GLP-1 and Glucagon (Bachem) may be used as control peptides. EC50 values may be calculated using uses a 4 parameter logistic fit based on the Levenberg-Marquardt algorithm.
# human GCGR = biological target: T1, human GCGR (Homo sapiens, UniProt P47871); test: cAMP activity assay, cells expressing human GCGR; assay type: cell-based; conditions: for GCGR/GLP1R ratio: Table 5, ratio of hGCGR EC50 to hGLP1R EC50;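 for all read-outs here: cAMP production read by luminescence after one hour of peptide exposure at room temperature, EC50 from logistic curve fit, native glucagon and GLP-1 as control peptides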
# T1 construct: expressed in transfected cells; grown with Blasticidin and Hygromycin
# T1 sequence (P47871 26-477): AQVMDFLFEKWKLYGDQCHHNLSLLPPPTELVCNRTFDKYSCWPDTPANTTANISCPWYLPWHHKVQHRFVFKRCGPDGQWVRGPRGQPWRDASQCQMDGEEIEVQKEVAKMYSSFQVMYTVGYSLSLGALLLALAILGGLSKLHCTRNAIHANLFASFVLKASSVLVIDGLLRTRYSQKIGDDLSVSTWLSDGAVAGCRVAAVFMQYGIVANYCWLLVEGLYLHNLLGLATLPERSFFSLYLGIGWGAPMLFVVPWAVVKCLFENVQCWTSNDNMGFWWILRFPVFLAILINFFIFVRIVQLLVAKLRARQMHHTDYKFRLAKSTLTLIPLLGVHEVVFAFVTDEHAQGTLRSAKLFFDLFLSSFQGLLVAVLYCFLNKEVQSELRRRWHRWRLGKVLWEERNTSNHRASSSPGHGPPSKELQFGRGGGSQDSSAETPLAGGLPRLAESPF
# Description: as §1, §2, §3
# [1] = Table 5, incretin peptides, cAMP, read-out: hGLP1R EC50
EC50 (human GLP1R; [1]),"EC50 (human GCGR; Table 5, incretin peptides, cAMP, read-out: hGCGR_EC50)",SMILES,EC50 (human GLP1R),EC50 (human GCGR),GCGR/GLP1R ratio (human GCGR)
,,CCCCCCCCCCCCCCCC(=O)N[C@@H](CCC(=O)N[C@@H](CCC(=O)NCCCC[C@H](NC(=O)[C@H](CC(=O)O)NC(=O)[C@H](CO)NC(=O)[C@@H](NC(=O)[C@H](Cc1ccccc1)NC(=O)[C@@H](NC(=O)CNC(=O)[C@H](CCC(N)=O)NC(=O)[C@@H](CO)NC(=O)[C@@H](N)Cc1c[nH]cn1)[C@@H](C)O)[C@@H](C)O)C(=O)N[C@@H](CO)C(=O)N[C@@H](CCCCN)C(=O)N[C@@H](Cc1ccc(O)cc1)C(=O)N[C@@H](CC(C)C)C(=O)N[C@@H](CC(=O)O)C(=O)N[C@@H](CCC(=O)O)C(=O)N[C@@H](CCCNC(=N)N)C(=O)N[C@@H](C)C(=O)N[C@@H](C)C(=O)N[C@@H](CCC(N)=O)C(=O)N[C@@H](CC(=O)O)C(=O)N[C@@H](Cc1ccccc1)C(=O)N[C@H](C(=O)N[C@@H](CCCCNC(=O)COCCOCCNC(=O)CCCCN=[N+]=[N-])C(=O)N[C@@H](Cc1c[nH]c2ccccc12)C(=O)N[C@@H](CC(C)C)C(=O)N[C@@H](CC(C)C)C(=O)N[C@@H](CC(=O)O)C(=O)N[C@H](C(N)=O)[C@@H](C)O)C(C)C)C(=O)O)C(=O)O [PEP14],0.07 nM,0.05 nM,0.8
,,CCCCCCCCCCCCCCCC(=O)N[C@@H](CCC(=O)N[C@@H](CCC(=O)NCCCC[C@H](NC(=O)[C@H](CC(=O)O)NC(=O)[C@H](CO)NC(=O)[C@@H](NC(=O)[C@H](Cc1ccccc1)NC(=O)[C@@H](NC(=O)CNC(=O)[C@H](CCC(N)=O)NC(=O)C(C)(C)NC(=O)[C@@H](N)Cc1c[nH]cn1)[C@@H](C)O)[C@@H](C)O)C(=O)N[C@@H](CO)C(=O)N[C@@H](CCCCN)C(=O)N[C@@H](Cc1ccc(O)cc1)C(=O)N[C@@H](CC(C)C)C(=O)N[C@@H](CC(=O)O)C(=O)NC(C)(C)C(=O)N[C@@H](CCCNC(=N)N)C(=O)N[C@@H](C)C(=O)N[C@@H](C)C(=O)N[C@@H](CCC(N)=O)C(=O)N[C@@H](CC(=O)O)C(=O)N[C@@H](Cc1ccccc1)C(=O)N[C@H](C(=O)N[C@@H](CCC(N)=O)C(=O)N[C@@H](Cc1c[nH]c2ccccc12)C(=O)N[C@@H](CC(C)C)C(=O)N[C@@H](CC(C)C)C(=O)N[C@@H](CC(=O)O)C(=O)N[C@H](C(=O)N[C@@H](CCCCN)C(=O)N[C@@H](CCCCNC(=O)COCCOCCNC(=O)CCCCN=[N+]=[N-])C(N)=O)[C@@H](C)O)C(C)C)C(=O)O)C(=O)O [PEP20],0.05 nM,0.1 nM,2.0
0.06 nM,,CC(C)C[C@H](NC(=O)[C@H](Cc1ccc(O)cc1)NC(=O)[C@H](CCCCN)NC(=O)[C@H](CO)NC(=O)[C@H](CCCCN)NC(=O)[C@H](CC(=O)O)NC(=O)[C@H](CO)NC(=O)[C@@H](NC(=O)[C@H](Cc1ccccc1)NC(=O)[C@@H](NC(=O)CNC(=O)[C@H](CCC(N)=O)NC(=O)[C@@H](CO)NC(=O)[C@@H](N)Cc1c[nH]cn1)[C@@H](C)O)[C@@H](C)O)C(=O)N[C@@H](CC(=O)O)C(=O)N[C@@H](CCC(=O)O)C(=O)N[C@@H](CCCNC(=N)N)C(=O)N[C@@H](C)C(=O)N[C@@H](C)C(=O)N[C@@H](CCCCN=[N+]=[N-])C(=O)N[C@@H](CC(=O)O)C(=O)N[C@@H](Cc1ccccc1)C(=O)N[C@H](C(=O)N[C@@H](CCC(N)=O)C(=O)N[C@@H](Cc1c[nH]c2ccccc12)C(=O)N[C@@H](CC(C)C)C(=O)N[C@@H](CC(C)C)C(=O)N[C@@H](CC(=O)O)C(=O)N[C@H](C(N)=O)[C@@H](C)O)C(C)C [PEP71],,0.12 nM,2.0
,,CCCCCCCCCCCCCCCC(=O)N[C@@H](CCC(=O)N[C@@H](CCC(=O)NCCCC[C@H](NC(=O)[C@H](CC(=O)O)NC(=O)[C@H](CO)NC(=O)[C@@H](NC(=O)[C@H](Cc1ccccc1)NC(=O)[C@@H](NC(=O)CNC(=O)[C@H](CCC(N)=O)NC(=O)[C@@H](CO)NC(=O)[C@@H](N)Cc1c[nH]cn1)[C@@H](C)O)[C@@H](C)O)C(=O)N[C@@H](CO)C(=O)N[C@@H](CCCCN)C(=O)N[C@@H](Cc1ccc(O)cc1)C(=O)N[C@@H](CC(C)C)C(=O)N[C@@H](CC(=O)O)C(=O)N[C@@H](CCC(=O)O)C(=O)N[C@@H](CCCNC(=N)N)C(=O)N[C@@H](C)C(=O)N[C@@H](C)C(=O)N[C@@H](CCC(N)=O)C(=O)N[C@@](C)(CC(=O)O)C(=O)N[C@@H](Cc1ccccc1)C(=O)N[C@H](C(=O)N[C@@H](CCCCN=[N+]=[N-])C(=O)N[C@@H](Cc1c[nH]c2ccccc12)C(=O)N[C@@H](CC(C)C)C(=O)N[C@@H](CCS(C)(=O)=O)C(=O)N[C@@H](CC(=O)O)C(=O)N[C@H](C(N)=O)[C@@H](C)O)C(C)C)C(=O)O)C(=O)O [PEP34],0.05 nM,0.05 nM,1.0
0.03 nM,,CCCCCCCCCCCCCCCC(=O)N[C@@H](CCC(=O)N[C@@H](CCC(=O)NCCCC[C@H](NC(=O)[C@H](CC(=O)O)NC(=O)[C@H](CO)NC(=O)[C@@H](NC(=O)[C@H](Cc1ccccc1)NC(=O)[C@@H](NC(=O)CNC(=O)[C@H](CCC(N)=O)NC(=O)[C@@H](CO)NC(=O)[C@@H](N)Cc1c[nH]cn1)[C@@H](C)O)[C@@H](C)O)C(=O)N[C@@H](CO)C(=O)N[C@@H](CCCCN)C(=O)N[C@@H](Cc1ccc(O)cc1)C(=O)N[C@@H](CC(C)C)C(=O)N[C@@H](CC(=O)O)C(=O)N[C@@H](CCC(=O)O)C(=O)N[C@@H](CCCNC(=N)N)C(=O)N[C@@H](C)C(=O)N[C@@H](C)C(=O)N[C@@H](CCC(N)=O)C(=O)N[C@@H](CCCCN=[N+]=[N-])C(=O)N[C@@H](Cc1ccccc1)C(=O)N[C@H](C(=O)N[C@@H](CCC(N)=O)C(=O)N[C@@H](Cc1c[nH]c2ccccc12)C(=O)N[C@@H](CC(C)C)C(=O)N[C@@H](CC(C)C)C(=O)N[C@@H](CC(=O)O)C(=O)N[C@H](C(N)=O)[C@@H](C)O)C(C)C)C(=O)O)C(=O)O [PEP1],,,0.5
0.07 nM,2.7 nM,CSCC[C@H](NC(=O)[C@H](CC(C)C)NC(=O)[C@H](Cc1c[nH]c2ccccc12)NC(=O)[C@H](CCCCN=[N+]=[N-])NC(=O)[C@@H](NC(=O)[C@H](Cc1ccccc1)NC(=O)[C@H](CC(=O)O)NC(=O)[C@H](CCC(N)=O)NC(=O)[C@H](C)NC(=O)[C@H](C)NC(=O)[C@H](CCCNC(=N)N)NC(=O)C(C)(C)NC(=O)[C@H](CC(=O)O)NC(=O)[C@H](CC(C)C)NC(=O)[C@H](Cc1ccc(O)cc1)NC(=O)[C@H](CCCCN)NC(=O)[C@H](CO)NC(=O)[C@H](CCCCN)NC(=O)[C@H](CC(=O)O)NC(=O)[C@H](CO)NC(=O)[C@@H](NC(=O)[C@H](Cc1ccccc1)NC(=O)[C@@H](NC(=O)CNC(=O)[C@H](CCC(N)=O)NC(=O)C(C)(C)NC(=O)[C@@H](N)Cc1c[nH]cn1)[C@@H](C)O)[C@@H](C)O)C(C)C)C(=O)N[C@@H](CC(N)=O)C(=O)N[C@H](C(=O)N[C@@H](CCCCN)C(=O)N[C@@H](CCC(N)=O)C(=O)O)[C@@H](C)O [PEP68] (H-H[Aib]QGTFTSDKSKYLD[Aib]RAAQDFV[Lys(N3)]WLMNTKQ-OH; N-terminus assumed),,,38.6
